Data as given in ChEMBL document CHEMBL4419167, “Compositions and methods for treating respiratory injury or disease” (2018).
Activity calls are given as the source filed them.

Legend:
Type in all cases: functional, organism-based
[1] = tested on: Mus musculus; assay: Suppression of lung injury in mouse model of influenza A virus H1N1 infection-induced lung injury assessed as decrease in lung edema at 30 ug/ml dosed via drinking water
[2] = tested on: Mus musculus; assay: Suppression of lung injury in mouse model of Pseudomonas aeruginosa PA103 infection-induced lung injury assessed as reduction in lung resistance at 100 ug, ip pre-treated before infection
[3] = tested on: Mus musculus; assay: Suppression of lung injury in mouse model of influenza A virus H1N1 infection-induced lung injury assessed as increase in lung compliance at 30 ug/ml dosed via drinking water
[4] = tested on: Mus musculus; assay: Suppression of lung injury in mouse model of Pseudomonas aeruginosa PA103 infection-induced lung injury assessed as reduction in lung elastance at 100 ug, ip pre-treated before infection
[5] = tested on: Mus musculus; assay: Suppression of lung injury in mouse model of Pseudomonas aeruginosa PA103 infection-induced lung injury assessed as increase in compliance at 100 ug, ip pre-treated before infection
[6] = tested on: Mus musculus; assay: Suppression of lung injury in mouse model of influenza A virus H1N1 infection-induced lung injury assessed as increase in mouse survival at 30 ug/ml dosed via drinking water
[7] = tested on: Mus musculus; assay: Suppression of lung injury in mouse model of influenza A virus H1N1 infection-induced lung injury assessed as decrease in cell infiltration at 30 ug/ml dosed via drinking water by H and E staining based assay
[8] = tested on: Mus musculus; assay: Suppression of lung injury in mouse model of Pseudomonas aeruginosa PA103 infection-induced lung injury assessed as reduction in lavage IL-1beta levels at 100 ug, ip pre-treated before infection
[9] = tested on: Mus musculus; assay: Suppression of lung injury in mouse model of Pseudomonas aeruginosa PA103 infection-induced lung injury assessed as reduction in lavage TNFalpha levels at 100 ug, ip pre-treated before infection
[10] = tested on: Mus musculus; assay: Suppression of lung injury in mouse model of influenza A virus H1N1 infection-induced lung injury assessed as decrease in lung elastance at 30 ug/ml dosed via drinking water
[11] = tested on: Mus musculus; assay: Suppression of lung injury in mouse model of influenza A virus H1N1 infection-induced lung injury assessed as decrease in lavage cell counts at 30 ug/ml dosed via drinking water
[12] = tested on: Mus musculus; assay: Suppression of lung injury in mouse model of Pseudomonas aeruginosa PA103 infection-induced lung injury assessed as reduction in lavage IL6 levels at 100 ug, ip pre-treated before infection
[13] = tested on: Mus musculus; assay: Suppression of lung injury in mouse model of Pseudomonas aeruginosa PA103 infection-induced lung injury assessed as reduction in lavage protein concentration at 100 ug, ip pre-treated before infection
[14] = tested on: Mus musculus; assay: Suppression of lung injury in mouse model of Pseudomonas aeruginosa PA103 infection-induced lung injury assessed as reduction in cell infiltration at 100 ug, ip pre-treated before infection by H and E staining based assay
[15] = tested on: Mus musculus; assay: Suppression of lung injury in mouse model of Pseudomonas aeruginosa PA103 infection-induced lung injury assessed as reduction in lavage cell counts at 100 ug, ip pre-treated before infection
[16] = tested on: Mus musculus; assay: Suppression of lung injury in mouse model of Pseudomonas aeruginosa PA103 infection-induced lung injury assessed as improve in lung volume at 100 ug, ip pre-treated before infection
[17] = tested on: Mus musculus; assay: Suppression of lung injury in mouse model of influenza A virus H1N1 infection-induced lung injury assessed as decrease in lavage protein concentration at 30 ug/ml dosed via drinking water
[18] = tested on: Mus musculus; assay: Suppression of IMQ-induced psoriasis in BALB/c mouse model of skin inflammation assessed as reduction in psoriasis index at 1 or 5 mg/kg dosed via drinking water on daily basis
[19] = tested on: Mus musculus; assay: Suppression of IMQ-induced psoriasis in BALB/c mouse model of skin inflammation assessed as effect on gross appearance at 1 or 5 mg/kg applied topically on daily basis
[20] = tested on: Mus musculus; assay: Suppression of IMQ-induced psoriasis in BALB/c mouse model of skin inflammation assessed as reduction in spleen weight at 1 or 5 mg/kg applied topically on daily basis
[21] = tested on: Mus musculus; assay: Suppression of smoke-induced chronic lung inflammation in mouse assessed as reduction in lavage cell counts at 100 ug, ip administered as single dose injected after 5 weeks cigarette smoke exposure
[22] = tested on: Mus musculus; assay: Suppression of smoke-induced chronic lung inflammation in mouse assessed as reduction in lavage IL6 levels at 100 ug, ip administered as single dose injected after 5 weeks cigarette smoke exposure
[23] = tested on: Mus musculus; assay: Suppression of smoke-induced chronic lung inflammation in mouse assessed as reduction in lavage protein concentration at 100 ug, ip administered as single dose injected after 5 weeks cigarette smoke exposure
[24] = tested on: Mus musculus; assay: Suppression of smoke-induced chronic lung inflammation in mouse assessed as reduction in lavage IL2 levels at 100 ug, ip administered as single dose injected after 5 weeks cigarette smoke exposure
[25] = tested on: Mus musculus; assay: Suppression of IMQ-induced psoriasis in BALB/c mouse model of skin inflammation assessed as effect on gross appearance at 1 or 5 mg/kg dosed via drinking water on daily basis
[26] = tested on: Mus musculus; assay: Suppression of lung injury in mouse model of Pseudomonas aeruginosa PA103 infection-induced pneumonia assessed as reduction in lavage IL-1beta levels at 30 or 150 ug, ip pre-treated before infection
[27] = tested on: Mus musculus; assay: Suppression of dexamethasone-induced muscle atrophy in C57BL mouse assessed as prevention of muscle wasting in TA muscle at 0.5 to 5 mg/kg/day dosed via drinking water by H and E staining based assay
[28] = tested on: Mus musculus; assay: Antiinflammatory activity in C57/BL mouse model of lung transplant acute rejection transplanted with BALB/C mouse left lung assessed as reduction in cell infiltration in lung at 5 mg/kg/day, ip for 2 days followed by dosing at 5 mg/kg/day via drinking water for 5 days
[29] = tested on: Mus musculus; assay: Suppression of smoke-induced chronic lung inflammation in mouse assessed as reduction in lavage IL10 levels at 100 ug, ip administered as single dose injected after 5 weeks cigarette smoke exposure
[30] = tested on: Mus musculus; assay: Suppression of smoke-induced chronic lung inflammation in mouse assessed as reduction in lavage IL12 levels at 100 ug, ip administered as single dose injected after 5 weeks cigarette smoke exposure
[31] = tested on: Mus musculus; assay: Suppression of smoke-induced chronic lung inflammation in mouse assessed as reduction in lavage IL-1beta levels at 100 ug, ip administered as single dose injected after 5 weeks cigarette smoke exposure
[32] = tested on: Mus musculus; assay: Suppression of lung injury in mouse model of Pseudomonas aeruginosa PA103 infection-induced pneumonia assessed as reduction in lavage IL6 levels at 30 or 150 ug, ip pre-treated before infection
[33] = tested on: Mus musculus; assay: Suppression of lung injury in mouse model of Pseudomonas aeruginosa PA103 infection-induced pneumonia assessed as reduction in cell infiltration at 30 or 150 ug, ip pre-treated before infection by H and E staining based assay
[34] = tested on: Mus musculus; assay: Antiinflammatory activity in C57/BL mouse model of lung transplant acute rejection transplanted with BALB/C mouse left lung assessed as amelioration of neutrophilia infiltration at 5 mg/kg/day, ip for 2 days followed by dosing at 5 mg/kg/day via drinking water for 5 days
[35] = tested on: Mus musculus; assay: Suppression of lung injury in mouse model of Pseudomonas aeruginosa PA103 infection-induced pneumonia assessed as reduction in lavage TNFalpha levels at 30 or 150 ug, ip pre-treated before infection
[36] = tested on: Mus musculus; assay: Suppression of smoke-induced chronic lung inflammation in mouse assessed as reduction in lavage TNFalpha levels at 100 ug, ip administered as single dose injected after 5 weeks cigarette smoke exposure
[37] = tested on: Mus musculus; assay: Suppression of IMQ-induced psoriasis in BALB/c mouse model of skin inflammation assessed as reduction in psoriasis index at 1 or 5 mg/kg applied topically on daily basis
[38] = tested on: Mus musculus; assay: Suppression of lung injury in mouse model of Pseudomonas aeruginosa PA103 infection-induced pneumonia assessed as reduction in lavage cell counts at 30 or 150 ug, ip pre-treated before infection
[39] = tested on: Mus musculus; assay: Suppression of dexamethasone-induced muscle atrophy in C57BL mouse assessed as reduction in TRAF6 protein in TA muscle at 0.5 to 5 mg/kg/day dosed via drinking water by immunoblotting analysis
[40] = tested on: Mus musculus; assay: Suppression of smoke-induced chronic lung inflammation in mouse assessed as reduction in lavage IFNgamma levels at 100 ug, ip administered as single dose injected after 5 weeks cigarette smoke exposure
[41] = tested on: Mus musculus; assay: Suppression of dexamethasone-induced muscle atrophy in C57BL mouse assessed as reduction in tibialis anterior muscle loss at 0.5 to 5 mg/kg/day dosed via drinking water
[42] = tested on: Mus musculus; assay: Suppression of IMQ-induced psoriasis in BALB/c mouse model of skin inflammation assessed as reduction in ear thickness at 1 or 5 mg/kg dosed via drinking water on daily basis
[43] = tested on: Mus musculus; assay: Suppression of IMQ-induced psoriasis in BALB/c mouse model of skin inflammation assessed as reduction in spleen weight at 1 or 5 mg/kg dosed via drinking water on daily basis
[44] = tested on: Mus musculus; assay: Suppression of lung injury in mouse model of Pseudomonas aeruginosa PA103 infection-induced pneumonia assessed as reduction in neutrophil infiltration at 30 or 150 ug, ip pre-treated before infection by May-Grunwald and Geimsa staining based assay
[45] = tested on: Mus musculus; assay: Suppression of IMQ-induced psoriasis in BALB/c mouse model of skin inflammation assessed as reduction in ear thickness at 1 or 5 mg/kg applied topically on daily basis
[46] = tested on: Mus musculus; assay: Suppression of lung injury in mouse model of Pseudomonas aeruginosa PA103 infection-induced pneumonia assessed as reduction in lavage protein concentration at 30 or 150 ug, ip pre-treated before infection

Measured: Activity

c1ccc(-c2ccc(CNCCNCc3ccc(-c4ccccn4)cc3)cc2)nc1
active: [1] | [2] | [3] | [4] | [5] | [6] | [7] | [8] | [9] | [10] | [11] | [12] | [13] | [14] | [15] | [16] | [17]

c1cnc(-c2ccc(CNCCNCc3ccc(-c4ncccn4)cc3)cc2)nc1
active: [18] | [19] | [20] | [21] | [22] | [23] | [24] | [25] | [26] | [27] | [28] | [29] | [30] | [31] | [32] | [33] | [34] | [35] | [36] | [37] | [38] | [39] | [40] | [41] | [42] | [43] | [44] | [45] | [46]
